The supplement of paper PMC11451515

Tested on: NOMO1
Experiment: cell viability relative to DMSO control; higher = less cytotoxic
Details: 48 h
In short: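 Library compounds in DMSO were pin-dosed in an 11-point threefold series (47 μM to 0.79 nM) onto leukemia cells in 1536-well plates (5 μl). Plates held 500 cells/well of NOMO1 or SEM or 1000 cells/well of P12-Ichikawa, each adapted for at least four passages in each medium. Luminescence was read with CellTiter-Glo One after 48 h at 37°C. Viability means the per-plate percentage relative to DMSO wells, using cell-free wells as background.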

[1] = RPMI 5 mM glucose + 10% FBS, 0.000781 µM
[2] = RPMI 5 mM glucose + 10% FBS, 0.00234 µM
[3] = RPMI 5 mM glucose + 10% FBS, 0.00702 µM
[4] = RPMI 5 mM glucose + 10% FBS, 0.0211 µM
[5] = RPMI 5 mM glucose + 10% FBS, 0.0632 µM
[6] = RPMI 5 mM glucose + 10% FBS, 0.19 µM
[7] = RPMI 5 mM glucose + 10% FBS, 0.569 µM
[8] = RPMI 5 mM glucose + 10% FBS, 1.71 µM
[9] = RPMI 5 mM glucose + 10% FBS, 5.12 µM
[10] = RPMI 5 mM glucose + 10% FBS, 15.4 µM
[11] = RPMI 5 mM glucose + 10% FBS, 46.1 µM
[12] = RPMI 5 mM glucose + 10% dialyzed FBS, 0.000781 µM
[13] = RPMI 5 mM glucose + 10% dialyzed FBS, 0.00234 µM
[14] = RPMI 5 mM glucose + 10% dialyzed FBS, 0.00702 µM
[15] = RPMI 5 mM glucose + 10% dialyzed FBS, 0.0211 µM
[16] = RPMI 5 mM glucose + 10% dialyzed FBS, 0.0632 µM
[17] = RPMI 5 mM glucose + 10% dialyzed FBS, 0.19 µM
[18] = RPMI 5 mM glucose + 10% dialyzed FBS, 0.569 µM
[19] = RPMI 5 mM glucose + 10% dialyzed FBS, 1.71 µM
[20] = RPMI 5 mM glucose + 10% dialyzed FBS, 5.12 µM
[21] = RPMI 5 mM glucose + 10% dialyzed FBS, 15.4 µM
[22] = RPMI 5 mM glucose + 10% dialyzed FBS, 46.1 µM
[23] = HPLM + 10% dialyzed FBS, 0.000781 µM
[24] = HPLM + 10% dialyzed FBS, 0.00234 µM
[25] = HPLM + 10% dialyzed FBS, 0.00702 µM
[26] = HPLM + 10% dialyzed FBS, 0.0211 µM
[27] = HPLM + 10% dialyzed FBS, 0.0632 µM
[28] = HPLM + 10% dialyzed FBS, 0.19 µM
[29] = HPLM + 10% dialyzed FBS, 0.569 µM
[30] = HPLM + 10% dialyzed FBS, 1.71 µM
[31] = HPLM + 10% dialyzed FBS, 5.12 µM
[32] = HPLM + 10% dialyzed FBS, 15.4 µM
[33] = HPLM + 10% dialyzed FBS, 46.1 µM

Row | Structure (SMILES) | cell viability [1] | cell viability [2] | cell viability [3] | cell viability [4] | cell viability [5] | cell viability [6] | cell viability [7] | cell viability [8] | cell viability [9] | cell viability [10] | cell viability [11] | cell viability [12] | cell viability [13] | cell viability [14] | cell viability [15] | cell viability [16] | cell viability [17] | cell viability [18] | cell viability [19] | cell viability [20] | cell viability [21] | cell viability [22] | cell viability [23] | cell viability [24] | cell viability [25] | cell viability [26] | cell viability [27] | cell viability [28] | cell viability [29] | cell viability [30] | cell viability [31] | cell viability [32] | cell viability [33]
1 | COC1=CC=C2CN(C)CC[C@@]34\C=C/[C@H](O)C[C@@H]3OC1=C24 | 128% | 124% | 120% | 112% | 124% | 130% | 118% | 123% | 126% | 108% | 104% | 126% | 121% | 118% | 119% | 118% | 129% | 120% | 115% | 110% | 108% | 113% |  |  |  |  |  |  |  |  |  |  | 
2 | CON(C)C(=O)N1/N=C(S[C@@]1(CCCN)C2=CC=CC=C2)/C3=CC(=CC=C3F)F | 115% | 114% | 133% | 69.4% | 23.8% | 32.3% | 22.3% | 27.6% | 23% | 25.3% | 21.1% |  |  |  |  |  |  |  |  |  |  |  | 119% | 113% | 117% | 87.5% | 34.4% | 35.8% | 38.6% | 38.1% | 24.6% | 36.3% | 21.6%
3 | Cc1c(C)c2c(c(C)c1O)CCC(C)(COc1ccc(CC3SC(=O)NC3=O)cc1)O2 (stereo unspecified) |  |  |  |  |  |  |  |  |  |  |  |  |  |  |  |  |  |  |  |  |  |  | 122% | 123% | 114% | 133% | 125% | 126% | 142% | 138% | 132% | 116% | 125%
4 | O=C(Nc1cccnn1)N1CCC(=Cc2cccc(Oc3ccc(C(F)(F)F)cn3)c2)CC1 | 83.4% | 98.3% | 96.3% | 21.7% | 90.8% | 112% | 91.6% | 97.7% | 98.1% | 96.2% | 94.2% | 91% | 85.3% | 94.4% | 75.4% | 103% | 97.4% | 109% | 106% | 96.5% | 103% | 100% | 72.8% | 98.3% | 109% | 47.4% | 122% | 117% | 113% | 124% | 110% | 102% | 110%
5 | COC1=CC=C2/C3=N/CCN3\C(=N/C2=C1OC)NC(=O)C4=CC=CN=C4 | 104% | 115% | 113% | 123% | 132% | 108% | 110% | 114% | 107% | 115% | 92.7% | 116% | 141% | 117% | 127% | 131% | 104% | 103% | 103% | 83.6% | 76.5% | 68% | 124% | 132% | 123% | 131% | 121% | 126% | 114% | 111% | 93.2% | 86% | 78.6%
6 | CO/N=C(\C(=O)N[C@@H]1C(=O)N2C(C(=O)OCOC(=O)C(C)(C)C)=C(/C=C\c3scnc3C)CS[C@H]12)c1csc(N)n1 | 81% | 106% | 92.8% | 98.9% | 104% | 104% | 99.4% | 92.5% | 95% | 84.6% | 58.2% | 72.8% | 83.9% | 88% | 80.9% | 91.1% | 83.9% | 96.2% | 99.1% | 88% | 70% | 48.6% | 81.6% | 111% | 103% | 93.3% | 102% | 87.7% | 109% | 102% | 106% | 81.7% | 42.9%
7 | CC(C)(C)[C@H](NC(=O)c1ccc(N)c(Cl)c1)C(=O)N1CCC[C@H]1C(=O)N[C@H](C#N)CC(=O)O | 113% | 126% | 112% | 118% | 120% | 126% | 116% | 30% | 23% | 22.7% | 20.6% |  |  |  |  |  |  |  |  |  |  |  |  |  |  |  |  |  |  |  |  |  | 
8 | CCOC(=O)\C1=C\[C@@H](OC(CC)CC)[C@H](NC(C)=O)[C@@H](N)C1 | 91.9% | 92.5% | 94.9% | 91.9% | 95.1% | 98.9% | 95.7% | 102% | 88.9% | 103% | 82.7% | 84.4% | 93.4% | 102% | 87.4% | 94.9% | 106% | 93.6% | 91.7% | 99.3% | 103% | 87.1% | 90.4% | 86.1% | 94.3% | 98.9% | 93.7% | 107% | 92.5% | 93.1% | 84% | 86.9% | 86.4%
9 | OC1=CC2=C(C(=C1)O)C(=O)\C(=C(/O2)C3=CC(=C(O)C=C3)O)O | 98.1% | 105% | 115% | 90.8% | 110% | 108% | 106% | 110% | 95.4% | 90.5% | 97.9% | 98.2% | 98% | 109% | 107% | 104% | 118% | 110% | 104% | 107% | 106% | 102% | 97.5% | 104% | 102% | 112% | 125% | 117% | 116% | 99.7% | 118% | 110% | 109%
10 | CN1CCN(CCCN2c3ccccc3Sc3ccc(C(F)(F)F)cc32)CC1 | 100% | 104% | 108% | 101% | 96.2% | 98.5% | 106% | 61.5% | 18.7% | 16.7% | 11.3% | 99.6% | 107% | 105% | 108% | 119% | 113% | 103% | 104% | 27.2% | 25.6% | 21% | 105% | 106% | 112% | 117% | 108% | 115% | 125% | 95.4% | 32.9% | 20.6% | 24.2%
11 | COC1=CC=C(C=C1O)C/2=C/C(=O)C3=C(O2)C=C(O[C@@H]4O[C@H](CO[C@@H]5O[C@@H](C)[C@H](O)[C@@H](O)[C@H]5O)[C@@H](O)[C@H](O)[C@H]4O)C=C3O | 112% | 103% | 110% | 115% | 130% | 114% | 126% | 125% | 126% | 124% | 114% |  |  |  |  |  |  |  |  |  |  |  | 112% | 118% | 129% | 126% | 130% | 142% | 134% | 117% | 117% | 129% | 139%
12 | CC(C)[C@H](N)C(=O)OCCOC[N]1C=NC2=C1\N=C(N)/NC2=O |  |  |  |  |  |  |  |  |  |  |  |  |  |  |  |  |  |  |  |  |  |  | 102% | 119% | 110% | 122% | 135% | 135% | 133% | 123% | 133% | 113% | 142%
13 | COc1cc(N2CCC(N(C)C)CC2)ccc1Nc1ncc(Cl)c(Nc2ccccc2P(C)(C)=O)n1 | 123% | 116% | 130% | 118% | 124% | 115% | 111% | 102% | 21.3% | 23.8% | 23.2% | 115% | 110% | 128% | 117% | 123% | 124% | 107% | 94.7% | 31.4% | 21.3% | 27.6% |  |  |  |  |  |  |  |  |  |  | 
14 | O.O.CCN1CCN(C(=O)N[C@H](C(=O)N[C@H]2[C@@H]3SC\C(=C(/N3C2=O)C(O)=O)CSC4=NN=N[N]4C)C5=CC=C(O)C=C5)C(=O)C1=O | 81.4% | 93.8% | 88.5% | 19.5% | 95.2% | 100% | 111% | 109% | 101% | 111% | 113% | 77.5% | 92.9% | 93.5% | 32% | 100% | 96.1% | 100% | 101% | 92.4% | 102% | 107% | 77.3% | 86.9% | 106% | 29.4% | 106% | 98.8% | 110% | 104% | 101% | 89.8% | 115%
15 | Cc1noc(-c2ccc(CSCCC(=O)O)cc2)c1NC(=O)OC(C)c1ccccc1Cl (stereo unspecified) | 85.7% | 97.5% | 99% | 89.6% | 109% | 95.4% | 102% | 100% | 95.5% | 110% | 105% | 79% | 99.1% | 87.3% | 86.3% | 99.1% | 92.2% | 99.5% | 95.8% | 100% | 104% | 107% | 92.3% | 89.9% | 105% | 104% | 99.8% | 97.1% | 95.6% | 97% | 113% | 111% | 95.7%
16 | NC/1=N/C(=O)N(/C=N1)[C@@H]2O[C@H](CO)[C@@H](O)[C@H]2O | 100% | 109% | 91.5% | 93.6% | 99.9% | 106% | 96.9% | 90.6% | 81.3% | 52.7% | 20.7% | 110% | 112% | 106% | 110% | 116% | 111% | 109% | 91.6% | 72.6% | 32.6% | 14.6% | 108% | 108% | 111% | 101% | 106% | 115% | 108% | 100% | 94.8% | 65.8% | 21.2%
17 | C[C@@]1(C(=O)Nc2ccc(F)nc2)CCCN1c1nc(Nc2cc(C3CC3)[nH]n2)c2cccn2n1 | 104% | 108% | 120% | 110% | 108% | 93.3% | 112% | 86% | 62.9% | 56.8% | 68.5% | 96.6% | 108% | 105% | 102% | 97.9% | 85.4% | 80% | 86.2% | 51.6% | 55.2% | 60% | 83.2% | 108% | 108% | 89.9% | 90.7% | 71.2% | 77.4% | 67.5% | 44.9% | 46.3% | 62%
